Test results: the supplement of paper PMC10307832

Key:
Experiment in all cases: relative viability (nuclei count vs DMSO), 5 days (fraction); higher = more cells survive
[1] = system: NCI-H23
Summary of the method: (§1)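 Medians of duplicate plates are given as relative viability. That measure is the nuclei count in treated wells divided by the count in vehicle wells. Counts were taken on 4× images of lung cancer cell lines in 1536-well plates, 5 days after pin-tool dosing the day after seeding with one drug alone or a fixed anchor-drug dose plus five library-drug doses (not always all listed) in √10 steps.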

[2] = system: NCI-H650
Summary of the method: as §1

[3] = system: HCC-15
Summary of the method: as §1

[4] = system: HARA
Summary of the method: as §1

[5] = system: SK-MES-1
Summary of the method: as §1

[6] = system: NCI-H1975
Summary of the method: as §1

[7] = system: COR-L23
Summary of the method: as §1

[8] = system: BEN
Summary of the method: as §1

[9] = system: HCC-44
Summary of the method: as §1

[10] = system: 201T
Summary of the method: as §1

[11] = system: NCI-H1792
Summary of the method: as §1

[12] = system: A-427
Summary of the method: as §1

[13] = system: NCI-H838
Summary of the method: as §1

[14] = system: NCI-H1650
Summary of the method: as §1

[15] = system: NCI-H2342
Summary of the method: as §1

[16] = system: NCI-H441
Summary of the method: as §1

[17] = system: SW 900
Summary of the method: as §1

[18] = system: NCI-H1437
Summary of the method: as §1

[19] = system: EKVX
Summary of the method: as §1

[20] = system: NCI-H358
Summary of the method: as §1

[21] = system: HCC-827
Summary of the method: as §1

`COc1cc2nccc(Oc3ccc(NC(=O)Nc4cc(C)on4)c(Cl)c3)c2cc1OC` [Tivozanib] + CC(=O)c1c(C)c2cnc(Nc3ccc(N4CCNCC4)cn3)nc2n(C2CCCC2)c1=O [Palbociclib] (partner 0.5 µM) gave a relative viability ([1]; first compound 0.005 µM) of 0.459, a relative viability ([1]; first compound 0.01581 µM) of 0.569 and a relative viability ([1]; first compound 0.05 µM) of 0.488. It also gave a relative viability ([1]; first compound 0.5 µM) of 0.497, a relative viability ([2]; first compound 0.005 µM) of 0.297 and a relative viability ([2]; first compound 0.01581 µM) of 0.391. The relative viability ([2]; first compound 0.05 µM) was 0.338, the relative viability ([2]; first compound 0.1581 µM) was 0.377 and the relative viability ([2]; first compound 0.5 µM) was 0.27. The relative viability ([3]; first compound 0.005 µM) was 0.689, the relative viability ([3]; first compound 0.01581 µM) was 0.768 and the relative viability ([3]; first compound 0.05 µM) was 0.767. It also gave a relative viability ([3]; first compound 0.1581 µM) of 0.734, a relative viability ([3]; first compound 0.5 µM) of 0.672 and a relative viability ([4]; first compound 0.005 µM) of 0.297. The relative viability ([4]; first compound 0.01581 µM) was 0.208, the relative viability ([4]; first compound 0.05 µM) was 0.3 and the relative viability ([4]; first compound 0.1581 µM) was 0.245. The relative viability ([4]; first compound 0.5 µM) was 0.272, the relative viability ([5]; first compound 0.005 µM) was 0.306 and the relative viability ([5]; first compound 0.01581 µM) was 0.345. The relative viability ([5]; first compound 0.05 µM) was 0.365, the relative viability ([5]; first compound 0.1581 µM) was 0.326 and the relative viability ([5]; first compound 0.5 µM) was 0.376. For the same compound, the relative viability ([6]; first compound 0.005 µM) was 0.585, the relative viability ([6]; first compound 0.01581 µM) was 0.609 and the relative viability ([6]; first compound 0.05 µM) was 0.648. It also gave a relative viability ([6]; first compound 0.1581 µM) of 0.341, a relative viability ([6]; first compound 0.5 µM) of 0.509 and a relative viability ([7]; first compound 0.005 µM) of 0.246. It also gave a relative viability ([7]; first compound 0.01581 µM) of 0.294, a relative viability ([7]; first compound 0.05 µM) of 0.319 and a relative viability ([7]; first compound 0.1581 µM) of 0.282. The relative viability ([7]; first compound 0.5 µM) was 0.213, the relative viability ([8]; first compound 0.005 µM) was 0.508 and the relative viability ([8]; first compound 0.01581 µM) was 0.497. It also gave a relative viability ([8]; first compound 0.05 µM) of 0.453, a relative viability ([8]; first compound 0.1581 µM) of 0.44 and a relative viability ([8]; first compound 0.5 µM) of 0.459. It also gave a relative viability ([9]; first compound 0.005 µM) of 0.958, a relative viability ([9]; first compound 0.01581 µM) of 0.914 and a relative viability ([9]; first compound 0.05 µM) of 0.989. The relative viability ([9]; first compound 0.1581 µM) was 0.987, the relative viability ([9]; first compound 0.5 µM) was 0.922 and the relative viability ([10]; first compound 0.005 µM) was 0.395. It also gave a relative viability ([10]; first compound 0.01581 µM) of 0.39, a relative viability ([10]; first compound 0.05 µM) of 0.366 and a relative viability ([10]; first compound 0.1581 µM) of 0.373. For the same compound, the relative viability ([10]; first compound 0.5 µM) was 0.357, the relative viability ([11]; first compound 0.005 µM) was 0.686 and the relative viability ([11]; first compound 0.01581 µM) was 0.643. It also gave a relative viability ([11]; first compound 0.05 µM) of 0.553, a relative viability ([11]; first compound 0.1581 µM) of 0.698 and a relative viability ([11]; first compound 0.5 µM) of 0.747. For the same compound, the relative viability ([12]; first compound 0.005 µM) was 0.51, the relative viability ([12]; first compound 0.01581 µM) was 0.55 and the relative viability ([12]; first compound 0.05 µM) was 0.511. It also gave a relative viability ([12]; first compound 0.1581 µM) of 0.531, a relative viability ([12]; first compound 0.5 µM) of 0.476 and a relative viability ([13]; first compound 0.005 µM) of 0.227. The relative viability ([13]; first compound 0.01581 µM) was 0.227, the relative viability ([13]; first compound 0.05 µM) was 0.211 and the relative viability ([13]; first compound 0.1581 µM) was 0.2. The relative viability ([13]; first compound 0.5 µM) was 0.229, the relative viability ([14]; first compound 0.005 µM) was 0.328 and the relative viability ([14]; first compound 0.01581 µM) was 0.304. The relative viability ([14]; first compound 0.05 µM) was 0.336, the relative viability ([14]; first compound 0.1581 µM) was 0.389 and the relative viability ([14]; first compound 0.5 µM) was 0.319. The relative viability ([15]; first compound 0.005 µM) was 0.495, the relative viability ([15]; first compound 0.01581 µM) was 0.524 and the relative viability ([15]; first compound 0.05 µM) was 0.536. It also gave a relative viability ([15]; first compound 0.5 µM) of 0.469, a relative viability ([16]; first compound 0.005 µM) of 0.214 and a relative viability ([16]; first compound 0.01581 µM) of 0.262. For the same compound, the relative viability ([16]; first compound 0.05 µM) was 0.248, the relative viability ([16]; first compound 0.1581 µM) was 0.216 and the relative viability ([16]; first compound 0.5 µM) was 0.207. It also gave a relative viability ([17]; first compound 0.005 µM) of 0.519, a relative viability ([17]; first compound 0.01581 µM) of 0.552 and a relative viability ([17]; first compound 0.05 µM) of 0.559. The relative viability ([17]; first compound 0.5 µM) was 0.531, the relative viability ([18]; first compound 0.005 µM) was 0.364 and the relative viability ([18]; first compound 0.01581 µM) was 0.344. It also gave a relative viability ([18]; first compound 0.05 µM) of 0.286, a relative viability ([18]; first compound 0.1581 µM) of 0.368 and a relative viability ([18]; first compound 0.5 µM) of 0.26. It also gave a relative viability ([19]; first compound 0.005 µM) of 0.37, a relative viability ([19]; first compound 0.01581 µM) of 0.455 and a relative viability ([19]; first compound 0.05 µM) of 0.449. It also gave a relative viability ([19]; first compound 0.1581 µM) of 0.291, a relative viability ([19]; first compound 0.5 µM) of 0.407 and a relative viability ([20]; first compound 0.005 µM) of 0.123. It also gave a relative viability ([20]; first compound 0.01581 µM) of 0.165, a relative viability ([20]; first compound 0.05 µM) of 0.122 and a relative viability ([20]; first compound 0.1581 µM) of 0.133. For the same compound, the relative viability ([20]; first compound 0.5 µM) was 0.157, the relative viability ([21]; first compound 0.005 µM) was 0.498 and the relative viability ([21]; first compound 0.01581 µM) was 0.506. It also gave a relative viability ([21]; first compound 0.05 µM) of 0.539, a relative viability ([21]; first compound 0.1581 µM) of 0.448 and a relative viability ([21]; first compound 0.5 µM) of 0.412.
